Assay results published in patent US4619925A, “3-Propenyl cephalosporin derivatives” (priority 1985, dated 1986).
Converted amounts (≈) assume the structure as drawn.

Assays:
[1] = Mouse blood levels
Source text: Table 3 contains comparative blood level data for mice treated orally and intramuscularly with the hydroxyphenylglycyl derivatives.

[2] = tested on: H. influenzae A20177; experiment: In vitro activity against fastidious bacteria; type: cell-based; conditions: Haemophilus influenzae; H. influenzae A20177; ampicillin-sensitive (ABPC-S); read-out: MIC
Source text: (§1) Table 5 contains comparative data for in vitro antibacterial activity against fastidious bacteria.

[3] = tested on: N. gonorrheae A15112; experiment: In vitro activity against fastidious bacteria; type: cell-based; conditions: N. gonorrheae A15112; read-out: MIC
Source text: as §1

[4] = tested on: H. influenzae A22483; experiment: In vitro activity against fastidious bacteria; type: cell-based; conditions: Haemophilus influenzae, A22483
Source text: as §1

[5] = tested on: H. influenzae A9833; experiment: In vitro activity against fastidious bacteria; type: cell-based; conditions: Haemophilus influenzae; H. influenzae A9833; ampicillin-sensitive (ABPC-S); read-out: MIC
Source text: as §1

[6] = tested on: N. meningitidis A20048; experiment: In vitro activity against fastidious bacteria; type: cell-based; conditions: Neisseria meningitidis; N. meningitidis A20048; read-out: MIC
Source text: as §1

[7] = tested on: S. pneumoniae Type II; experiment: In vitro activity against fastidious bacteria; type: cell-based; conditions: Streptococcus pneumoniae; S. pneumoniae Type II; read-out: MIC
Source text: as §1

[8] = tested on: S. pyogenes A20065; experiment: In vitro activity against fastidious bacteria; type: cell-based; conditions: Streptococcus pyogenes; S. pyogenes A20065; read-out: MIC
Source text: as §1

[9] = tested on: S. pyogenes s-23; experiment: In vitro activity against fastidious bacteria; type: cell-based; conditions: Streptococcus pyogenes, S23; S. pyogenes s-23; read-out: MIC
Source text: as §1

[10] = tested on: H. influenzae A22491; experiment: In vitro activity against fastidious bacteria; type: cell-based; conditions: Haemophilus influenzae, ampicillin-resistant (ABPC-R)
Source text: as §1

[11] = tested on: N. gonorrheae A20143; experiment: In vitro activity against fastidious bacteria; type: cell-based; conditions: N. gonorrheae A20143; read-out: MIC
Source text: as §1

[12] = tested on: S. pyogenes A9604; experiment: In vitro activity against fastidious bacteria; type: cell-based; conditions: Streptococcus pyogenes; S. pyogenes A9604; read-out: MIC
Source text: as §1

[13] = tested on: N. meningitidis A20049; experiment: In vitro activity against fastidious bacteria; type: cell-based; conditions: Neisseria meningitidis; N. meningitidis A20049; read-out: MIC
Source text: as §1

[14] = tested on: H. influenzae A21523; experiment: In vitro activity against fastidious bacteria; type: cell-based; conditions: Haemophilus influenzae; H. influenzae A21523; ampicillin-sensitive (ABPC-S); read-out: MIC
Source text: as §1

[15] = tested on: S. pyogenes A20201; experiment: In vitro activity against fastidious bacteria; type: cell-based; conditions: Streptococcus pyogenes; S. pyogenes A20201; read-out: MIC
Source text: as §1

[16] = tested on: H. influenzae A20193; experiment: In vitro activity against fastidious bacteria; type: cell-based; conditions: Haemophilus influenzae; H. influenzae A20193; ampicillin-sensitive (ABPC-S); read-out: MIC
Source text: as §1

[17] = tested on: S. pneumoniae Type III; experiment: In vitro activity against fastidious bacteria; type: cell-based; conditions: Streptococcus pneumoniae; S. pneumoniae Type III; read-out: MIC
Source text: as §1

[18] = tested on: N. meningitidis A21487; experiment: In vitro activity against fastidious bacteria; type: cell-based; conditions: Neisseria meningitidis; N. meningitidis A21487; read-out: MIC
Source text: as §1

[19] = tested on: H. influenzae A22157; experiment: In vitro activity against fastidious bacteria; type: cell-based; conditions: Haemophilus influenzae, ampicillin-resistant (ABPC-R)
Source text: as §1

[20] = tested on: H. influenzae A22481; experiment: In vitro activity against fastidious bacteria; type: cell-based; conditions: Haemophilus influenzae, ampicillin-resistant (ABPC-R)
Source text: as §1

[21] = tested on: N. meningitidis A21497; experiment: In vitro activity against fastidious bacteria; type: cell-based; conditions: Neisseria meningitidis; N. meningitidis A21497; read-out: MIC
Source text: as §1

[22] = tested on: H. influenzae A9729; experiment: In vitro activity against fastidious bacteria; type: cell-based; conditions: Haemophilus influenzae; H. influenzae A9729; ampicillin-sensitive (ABPC-S); read-out: MIC
Source text: as §1

[23] = tested on: S. pyogenes Dick; experiment: In vitro activity against fastidious bacteria; type: cell-based; conditions: Streptococcus pyogenes; S. pyogenes Dick; read-out: MIC
Source text: as §1

[24] = tested on: N. gonorrheae A20154; experiment: In vitro activity against fastidious bacteria; type: cell-based; conditions: N. gonorrheae A20154; read-out: MIC
Source text: as §1

[25] = tested on: N. meningitidis A21495; experiment: In vitro activity against fastidious bacteria; type: cell-based; conditions: Neisseria meningitidis; N. meningitidis A21495; read-out: MIC
Source text: as §1

[26] = tested on: S. pneumoniae A15069; experiment: In vitro activity against fastidious bacteria; type: cell-based; conditions: Streptococcus pneumoniae; S. pneumoniae A15069; read-out: MIC
Source text: as §1

[27] = tested on: S. pneumoniae A20759; experiment: In vitro activity against fastidious bacteria; type: cell-based; conditions: Streptococcus pneumoniae; S. pneumoniae A20759; read-out: MIC
Source text: as §1

[28] = tested on: Gn-Ia organisms (Gram-negative bacteria sensitive to ampicillin and cephalothin); experiment: In vitro activity, agar dilution, group of five strains; type: cell-based
Source text: Each of these groups of organisms is constituted of five individual strains of microorganism. The Gp-Ia organisms are Gram-positive staphylococci which are sensitive to penicillin. The Gp-Ib organisms are Gram-positive staphylococci which are resistant to penicillin and produce penicillinase. The Gn-Ia organisms are Gram-negative bacteria which are sensitive to ampicillin and cephalothin. The Gn-Ib organisms are Gram-negative bacteria which are resistant to ampicillin and cephalothin.

In the case of `C/C=C\C1=C(C(=O)O)N2C(=O)C(NC(=O)[C@H](N)c3cccc(O)c3)[C@H]2SC1` (some centres unmarked) [BMY-28272, 7-[(D)-2-amino-2-(3-hydroxyphenyl)acetamido]-3-[(Z)-1-propenyl]-3-cephem-4-carboxylic acid], the “AUC relative to BMY-28100” value ([1]; 20 mg/kg intramuscularly) is reported as “greater AUC value”, the “T1/2 relative to BMY-28100” value ([1]; 20 mg/kg intramuscularly) is reported as “longer T1/2 than BMY-28100” and the “AUC relative to BMY-28100” value ([1]; 100 mg/kg orally) is reported as “greater AUC value”. For the same compound, the “T1/2 relative to BMY-28100” value ([1]; 100 mg/kg orally) was “somewhat shorter T1/2 than BMY-28100”, the “duration of blood levels relative to BMY-28100” value ([1]; 100 mg/kg orally) was “longer duration of blood levels” and the “antibiotic concentrations in the bloodstream” value ([1]; following oral administration, summary statement) was “prolonged antibiotic concentrations in the bloodstream following oral administration”. The concentration at 10 min ([1]; mouse, blood, im, 20 mg/kg) was 20000 ng/mL, the concentration at 20 min ([1]; mouse, blood, im, 20 mg/kg) was 17000 ng/mL and the concentration at 0.5 h ([1]; mouse, blood, im, 20 mg/kg) was 17000 ng/mL. It also gave a concentration at 40 min ([1]; mouse, blood, im, 20 mg/kg) of 12000 ng/mL, a concentration at 50 min ([1]; mouse, blood, im, 20 mg/kg) of 11000 ng/mL and a concentration at 1 h ([1]; mouse, blood, im, 20 mg/kg) of 9400 ng/mL. For the same compound, the concentration at 1.5 h ([1]; mouse, blood, im, 20 mg/kg) was 4800 ng/mL, the concentration at 2 h ([1]; mouse, blood, im, 20 mg/kg) was 2600 ng/mL and the AUC ([1]; mouse, blood, im, 20 mg/kg, 20 mg/kg i.m.) was 20000 ng·h/mL. The half-life ([1]; mouse, blood, im, 20 mg/kg, T 1/2, 20 mg/kg i.m.) was 36 min, the Cmax ([1]; mouse, blood, po, 20 mg/kg) was 9600 ng/mL and the concentration at 0.5 h ([1]; mouse, blood, po, 20 mg/kg) was 7700 ng/mL. For the same compound, the concentration at 1 h ([1]; mouse, blood, po, 20 mg/kg) was 4200 ng/mL, the concentration at 2 h ([1]; mouse, blood, po, 20 mg/kg) was 1600 ng/mL and the concentration at 3 h ([1]; mouse, blood, po, 20 mg/kg) was 620 ng/mL. For the same compound, the concentration at 4 h ([1]; mouse, blood, po, 20 mg/kg) was 220 ng/mL, the concentration at 5 h ([1]; mouse, blood, po, 20 mg/kg) was 130 ng/mL and the concentration at 6 h ([1]; mouse, blood, po, 20 mg/kg) was 82 ng/mL. The AUC ([1]; mouse, blood, po, 20 mg/kg, 20 mg/kg p.o.) was 9700 ng·h/mL, the AUC ([1]; mouse, blood, po, 20 mg/kg, 20 mg/kg p.o., another experiment (footnote)) was 17000 ng·h/mL and the half-life ([1]; mouse, blood, po, 20 mg/kg, T 1/2, 20 mg/kg p.o.) was 51.6 min. The half-life ([1]; mouse, blood, po, 20 mg/kg, T 1/2, 20 mg/kg p.o., another experiment (footnote)) was 60 min, the concentration at 0.5 h ([1]; mouse, blood, po, 100 mg/kg) was 23000 ng/mL and the concentration at 1 h ([1]; mouse, blood, po, 100 mg/kg) was 22000 ng/mL. For the same compound, the concentration at 2 h ([1]; mouse, blood, po, 100 mg/kg) was 16000 ng/mL, the concentration at 3 h ([1]; mouse, blood, po, 100 mg/kg) was 10000 ng/mL and the concentration at 4 h ([1]; mouse, blood, po, 100 mg/kg) was 6300 ng/mL. It also gave a concentration at 5 h ([1]; mouse, blood, po, 100 mg/kg) of 3100 ng/mL, a concentration at 6 h ([1]; mouse, blood, po, 100 mg/kg) of 2800 ng/mL and a concentration at 7 h ([1]; mouse, blood, po, 100 mg/kg) of 2500 ng/mL. The AUC ([1]; mouse, blood, po, 100 mg/kg, 100 mg/kg p.o.) was 71000 ng·h/mL, the half-life ([1]; mouse, blood, po, 100 mg/kg, T 1/2, 100 mg/kg p.o.) was 102 min and the MIC [2] was 0.8 µg/mL (≈ 2.05 µM). For the same compound, the MIC [3] was 0.4 µg/mL (≈ 1.03 µM), the MIC [4] was 0.4 µg/mL (≈ 1.03 µM) and the MIC [5] was 0.4 µg/mL (≈ 1.03 µM). For the same compound, the MIC [6] was 0.8 µg/mL (≈ 2.05 µM), the MIC [7] was 0.1 µg/mL (≈ 0.257 µM) and the MIC [8] was 0.05 µg/mL (≈ 0.128 µM). The MIC [9] was 0.05 µg/mL (≈ 0.128 µM), the MIC [10] was 0.8 µg/mL (≈ 2.05 µM) and the MIC [11] was 0.8 µg/mL (≈ 2.05 µM). For the same compound, the MIC [12] was 0.05 µg/mL (≈ 0.128 µM), the MIC [13] was 0.8 µg/mL (≈ 2.05 µM) and the MIC [14] was 0.8 µg/mL (≈ 2.05 µM). The MIC [15] was 0.05 µg/mL (≈ 0.128 µM), the MIC [16] was 0.8 µg/mL (≈ 2.05 µM) and the MIC [17] was 0.4 µg/mL (≈ 1.03 µM). For the same compound, the MIC [18] was 0.8 µg/mL (≈ 2.05 µM), the MIC [19] was 0.4 µg/mL (≈ 1.03 µM) and the MIC [20] was 0.8 µg/mL (≈ 2.05 µM). It also gave an MIC [21] of 0.4 µg/mL (≈ 1.03 µM), an MIC [22] of 0.4 µg/mL (≈ 1.03 µM) and an MIC [23] of 0.05 µg/mL (≈ 0.128 µM). For the same compound, the MIC [24] was 0.8 µg/mL (≈ 2.05 µM), the MIC [25] was 0.4 µg/mL (≈ 1.03 µM) and the MIC [26] was 0.4 µg/mL (≈ 1.03 µM). For the same compound, the MIC [27] was 0.4 µg/mL (≈ 1.03 µM) and the “activity relative to cephalexin and cefaclor” value [28] was “more active than cephalexin and slightly better than cefaclor”.
